Experimental findings from ChEMBL document CHEMBL5365438, “2-Substituted 1,5-benzothiazepine-based HDAC inhibitors exert anticancer activities on human solid and acute myeloid leukemia cell lines” (Bioorg Med Chem, 2023) are described below.

Structures are written as SMILES. The source made the active and inactive calls. The calls are words filed in the database; no cut-off is given here.

The target in test [1] is T1, Histone deacetylase (Homo sapiens) (UniProt Q13547+O15379+Q9UBN7+Q92769+Q9UQL6+Q8WUI4+Q9BY41+Q96DB2+P56524+Q9UKV0+Q969S8). Description: Inhibition of HDAC in human HCT-116 cells assessed as upregulation of acetyl alpha-tubulin level at 1 to 5 uM incubated for 24 hrs by immunoblotting analysis. The format is cell-based. As to conditions: dose 1-5 µM. In general terms: A western blot detects proteins with antibodies after separation by electrophoresis.

The test system of test [2] is U-937. Description: Induction of apoptosis in human U-937 cells assessed as increased p21 protein expression level at 1 to 5 uM incubated for 24 hrs by immunoblotting analysis. The format is functional, cell-based. Conditions: dose 1-5 µM.
The target in test [3] is T1, Histone deacetylase (Homo sapiens). Description: Inhibition of HDAC in human U-937 cells assessed as upregulation of histone H3 acetylation at lysine 14 residue at 1 uM incubated for 24 hrs by immunoblotting analysis. The format is cell-based.
Test [4] concerns HCT-116. Kind of test: Cytotoxicity against human HCT-116 cells assessed as reduction in cell death at 1 uM incubated for 24 hrs by PI staining based FACS analysis. It counts as functional. Background: In flow cytometry, cells or beads pass a laser one at a time.
In test [5] the test system is U-937. Description: Induction of cell cycle arrest in human U-937 assessed as reduced accumulation of cells in S phase at 1 uM incubated for 24 hrs by FACS analysis. The format is functional, cell-based.
Test [6] relates to U-937. Kind of test: Induction of cell cycle arrest in human U-937 assessed as increase accumulation of cells in G2/M phase at 1 to 5 uM incubated for 24 hrs by FACS analysis. The format is functional, cell-based. As to conditions: dose 1-5 µM.
For test [7], the target named is T1, Histone deacetylase (Homo sapiens). Description: Inhibition of HDAC in human U-937 cells assessed as upregulation of histone H3 acetylation at lysine 14 residue at 5 uM incubated for 24 hrs by immunoblotting analysis. It counts as cell-based.
The test system of test [8] is HCT-116. Kind of test: Induction of cell cycle arrest in human HCT-116 assessed as accumulation of cells in G2/M phase at 1 to 5 uM incubated for 24 hrs by FACS analysis relative to SAHA. Conditions: dose 1-5 µM. It counts as functional.
In test [9] the test system is U-937. Kind of test: Induction of cell cycle arrest in human U-937 assessed as decrease accumulation of cells in G1 phase at 5 uM incubated for 24 hrs by FACS analysis. It counts as functional, cell-based.
In test [10] the test system is HCT-116. Description: Induction of apoptosis in human HCT-116 cells assessed as increased p21 protein expression level at 1 to 5 uM incubated for 24 hrs by immunoblotting analysis. The format is functional, cell-based. Conditions: dose 1-5 µM.
Test [11] concerns U-937. Kind of test: Cytotoxicity against human U-937 cells assessed as cell death at 5 uM incubated for 24 hrs by PI staining based FACS analysis relative to control. It counts as functional.
In a further test the target is Histone deacetylase. The format is subcellular, Homo sapiens, Nucleus. As to conditions: hela.
Test [12] concerns HCT-116. Description: Cytotoxicity against human HCT-116 cells assessed as cell death at 5 uM incubated for 24 hrs by PI staining based FACS analysis relative to control. The format is functional.
For test [13], the target named is Histone deacetylase 4 (Homo sapiens) (UniProt P56524). Kind of test: Inhibition of HDAC4 (unknown origin) at 10 uM using fluorogenic peptide as substrate pre-incubated for 15 mins followed by substrate addition incubated for 30 mins by fluorescence assay. As to conditions: time 45.0 min.
Histone deacetylase 4 (Homo sapiens), sequence (P56524 whole entry): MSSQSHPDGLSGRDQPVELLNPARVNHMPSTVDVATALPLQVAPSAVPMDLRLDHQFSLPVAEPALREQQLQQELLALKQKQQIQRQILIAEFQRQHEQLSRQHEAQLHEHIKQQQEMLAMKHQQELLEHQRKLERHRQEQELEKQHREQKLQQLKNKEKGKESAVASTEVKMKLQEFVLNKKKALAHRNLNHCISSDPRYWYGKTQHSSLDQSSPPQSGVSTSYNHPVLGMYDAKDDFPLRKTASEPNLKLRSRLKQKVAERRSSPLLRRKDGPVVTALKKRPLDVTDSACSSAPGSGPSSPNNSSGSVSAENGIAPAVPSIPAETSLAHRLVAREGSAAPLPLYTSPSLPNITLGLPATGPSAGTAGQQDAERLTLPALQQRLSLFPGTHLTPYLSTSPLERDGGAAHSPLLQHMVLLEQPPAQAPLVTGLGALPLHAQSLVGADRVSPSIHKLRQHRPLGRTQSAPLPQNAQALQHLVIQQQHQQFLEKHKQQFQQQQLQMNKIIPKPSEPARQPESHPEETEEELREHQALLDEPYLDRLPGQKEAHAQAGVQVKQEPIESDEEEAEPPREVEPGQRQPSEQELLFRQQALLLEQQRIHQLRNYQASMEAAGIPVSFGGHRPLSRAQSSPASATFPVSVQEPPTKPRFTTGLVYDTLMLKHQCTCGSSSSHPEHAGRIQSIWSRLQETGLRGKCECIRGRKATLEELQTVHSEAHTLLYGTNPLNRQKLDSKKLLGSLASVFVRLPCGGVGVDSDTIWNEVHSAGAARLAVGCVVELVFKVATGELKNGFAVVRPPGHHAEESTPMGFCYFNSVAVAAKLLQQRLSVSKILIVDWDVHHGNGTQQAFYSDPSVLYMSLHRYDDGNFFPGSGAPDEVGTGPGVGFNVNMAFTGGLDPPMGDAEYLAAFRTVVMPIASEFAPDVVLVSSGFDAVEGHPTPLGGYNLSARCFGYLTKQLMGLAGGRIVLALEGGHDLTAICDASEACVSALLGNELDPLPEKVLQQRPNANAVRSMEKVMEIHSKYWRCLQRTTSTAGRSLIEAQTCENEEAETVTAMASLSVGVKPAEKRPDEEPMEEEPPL
The target in test [14] is T2, Protein deacetylase HDAC6 (Homo sapiens) (UniProt Q9UBN7).
T2 sequence (whole entry): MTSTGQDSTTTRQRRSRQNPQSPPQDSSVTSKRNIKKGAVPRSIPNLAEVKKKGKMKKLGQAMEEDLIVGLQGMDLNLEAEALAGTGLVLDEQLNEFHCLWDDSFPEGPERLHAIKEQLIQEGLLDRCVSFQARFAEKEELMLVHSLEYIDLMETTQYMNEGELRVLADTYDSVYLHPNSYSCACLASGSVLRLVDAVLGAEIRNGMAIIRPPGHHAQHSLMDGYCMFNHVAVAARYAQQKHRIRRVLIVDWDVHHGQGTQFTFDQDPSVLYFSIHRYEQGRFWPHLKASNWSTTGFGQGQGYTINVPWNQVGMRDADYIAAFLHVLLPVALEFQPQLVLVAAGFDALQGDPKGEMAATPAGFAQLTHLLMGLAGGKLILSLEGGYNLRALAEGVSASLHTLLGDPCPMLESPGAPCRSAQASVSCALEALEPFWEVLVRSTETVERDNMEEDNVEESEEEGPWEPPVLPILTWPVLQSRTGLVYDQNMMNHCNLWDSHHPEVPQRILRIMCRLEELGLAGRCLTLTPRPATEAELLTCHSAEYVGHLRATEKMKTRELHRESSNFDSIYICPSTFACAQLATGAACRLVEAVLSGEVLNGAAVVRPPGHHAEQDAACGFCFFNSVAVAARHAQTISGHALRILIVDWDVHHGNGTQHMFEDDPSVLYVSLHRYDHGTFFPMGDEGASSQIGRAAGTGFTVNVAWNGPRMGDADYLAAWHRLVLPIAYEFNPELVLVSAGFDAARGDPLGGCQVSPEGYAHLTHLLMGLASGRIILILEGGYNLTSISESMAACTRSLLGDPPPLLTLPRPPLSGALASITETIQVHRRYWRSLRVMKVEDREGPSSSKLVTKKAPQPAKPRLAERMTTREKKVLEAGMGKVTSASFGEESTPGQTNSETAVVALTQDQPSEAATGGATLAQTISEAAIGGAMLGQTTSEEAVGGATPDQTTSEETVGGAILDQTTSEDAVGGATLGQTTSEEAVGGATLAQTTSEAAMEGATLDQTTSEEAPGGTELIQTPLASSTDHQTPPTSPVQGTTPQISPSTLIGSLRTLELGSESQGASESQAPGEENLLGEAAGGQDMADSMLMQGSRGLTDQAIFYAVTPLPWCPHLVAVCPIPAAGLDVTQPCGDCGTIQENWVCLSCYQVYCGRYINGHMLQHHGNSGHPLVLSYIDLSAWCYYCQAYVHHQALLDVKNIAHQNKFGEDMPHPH
Description: Inhibition of HDAC6 (unknown origin) at 10 uM using fluorogenic peptide as substrate pre-incubated for 15 mins followed by substrate addition incubated for 30 mins by fluorescence assay. As to conditions: time 45.0 min.

The test system of test [15] is HCT-116. Kind of test: Induction of cell cycle arrest in human HCT-116 assessed as decrease accumulation of cells in G1 phase at 1 to 5 uM incubated for 24 hrs by FACS analysis. As to conditions: dose 1-5 µM. The format is functional, cell-based.
In test [16] the test system is U-937. Description: Cytotoxicity against human U-937 cells assessed as cell death at 1 to 5 uM incubated for 24 hrs by PI staining based FACS analysis relative to control. It counts as functional. Conditions: dose 1-5 µM.
For test [17], the system named is HCT-116. Description: Induction of cell cycle arrest in human HCT-116 assessed as decrease accumulation of cells in S phase at 1 to 5 uM incubated for 24 hrs by FACS analysis. The format is functional, cell-based. Conditions: dose 1-5 µM.
Test [18] deals with U-937. Kind of test: Induction of cell cycle arrest in human U-937 assessed as decrease accumulation of cells in G1 phase at 1 to 5 uM incubated for 24 hrs by FACS analysis. Conditions: dose 1-5 µM. The format is functional, cell-based.
Test [19] has as its target T1, Histone deacetylase (Homo sapiens). Kind of test: Inhibition of HDAC in human HCT-116 cells assessed as upregulation of histone H3 acetylation at lysine 14 residue at 1 uM incubated for 24 hrs by immunoblotting analysis. It counts as cell-based.
For test [20], the target named is T3, Histone deacetylase 1 (Homo sapiens, UniProt Q13547). Description: Inhibition of HDAC1 (unknown origin) using fluorogenic peptide as the substrate containing residues 379-382 of p53 pre-incubated for 15 mins followed by substrate addition incubated for 30 mins by multimode plate reader.
T3 sequence (Q13547 whole entry, the tested form may be a part): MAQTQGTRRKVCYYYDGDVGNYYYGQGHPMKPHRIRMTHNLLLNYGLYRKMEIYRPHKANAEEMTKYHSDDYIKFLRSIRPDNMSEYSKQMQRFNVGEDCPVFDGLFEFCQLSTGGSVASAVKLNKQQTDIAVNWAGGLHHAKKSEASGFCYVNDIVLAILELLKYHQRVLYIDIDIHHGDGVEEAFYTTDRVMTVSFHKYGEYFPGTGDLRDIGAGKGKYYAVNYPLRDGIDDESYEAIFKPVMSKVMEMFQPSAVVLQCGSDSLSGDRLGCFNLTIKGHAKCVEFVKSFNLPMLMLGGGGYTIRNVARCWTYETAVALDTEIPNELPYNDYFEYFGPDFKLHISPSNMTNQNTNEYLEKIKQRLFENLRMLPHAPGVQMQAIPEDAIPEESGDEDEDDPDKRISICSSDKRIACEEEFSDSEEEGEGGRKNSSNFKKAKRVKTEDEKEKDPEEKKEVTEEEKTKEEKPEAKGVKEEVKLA
Test [21] concerns U-937. Kind of test: Induction of cell cycle arrest in human U-937 assessed as decrease accumulation of cells in S phase at 1 to 5 uM incubated for 24 hrs by FACS analysis. As to conditions: dose 1-5 µM. It counts as functional, cell-based.
For test [22], the target named is T3, Histone deacetylase 1. Description: Inhibition of HDAC1 (unknown origin) at 10 uM using fluorogenic peptide as substrate pre-incubated for 15 mins followed by substrate addition incubated for 30 mins by fluorescence assay relative to control. Conditions: time 45.0 min.
The target of test [23] is T1, Histone deacetylase (Homo sapiens). Kind of test: Inhibition of HDAC in human U-937 cells assessed as upregulation of acetyl alpha-tubulin level at 5 uM incubated for 24 hrs by immunoblotting analysis. It counts as cell-based.
Test [24] relates to U-937. Kind of test: Induction of cell cycle arrest in human U-937 assessed as decrease accumulation of cells in S phase at 5 uM incubated for 24 hrs by FACS analysis. It counts as functional, cell-based.
Test [25] concerns HCT-116. Kind of test: Induction of cell cycle arrest in human HCT-116 assessed as accumulation of cells in G2/M phase at 5 uM incubated for 24 hrs by FACS analysis. The format is functional, cell-based.
The test system of test [26] is U-937. Kind of test: Induction of cell cycle arrest in human U-937 assessed as increase accumulation of cells in G2/M phase at 5 uM incubated for 24 hrs by FACS analysis. It counts as functional, cell-based.

In the case of `O=C(CCCCCN1C(=O)C[C@@H](c2ccc(Cl)c(Cl)c2)Sc2ccccc21)NO`, the result (in test [1]; with U-937 [2]; in test [3]; with HCT-116 [4]; in the test with U-937 [5]; in the test with U-937 [6]) was Active. For the same compound, the outcome (in test [7]; with HCT-116 [8]; in the test with U-937 [9]; with HCT-116 [10]) was Active. In addition, the results for the Activity in the test on U-937 [11] and with HCT-116 [12] were approximately 12% and 22%, respectively. In addition, the half-inhibitory concentration (IC50) on Histone deacetylase is 165.1 nM.

Turning to `O=C(NCC1(c2nc(-c3ccccc3)cs2)CCOCC1)c1cccc(-c2noc(C(F)(F)F)n2)c1`, in test [13], the inhibition came out at 99.2%.

For `O=C(CCCCCN1C(=O)CC(c2ccccc2Cl)S(=O)(=O)c2ccccc21)NO` (racemic), the result (in [1]; in the test with U-937 [2]; in the test with HCT-116 [15]; in test [3]; in the test on HCT-116 [17]; in the test with U-937 [18]) was Active. Moreover, the result (in test [19]; in the test with U-937 [6]; in test [7]; in the test on U-937 [21]; in [23]; in the test with HCT-116 [8]) was Active. Also, the result in the test with HCT-116 [10] was Active. Moreover, the values for the inhibition (in test [14]; on Histone deacetylase 1 [22]) were 99.4% and 92.6%, respectively. In addition, in the test on U-937 [16], the Activity is given as approximately 6%. Further, the results for the half-maximal inhibitory concentration (IC50) on Histone deacetylase 1 [20] and against Histone deacetylase were 270 nM and 40.6 nM, respectively.

On to `O=C(CCCCCN1C(=O)CC(c2cccc3ccccc23)S(=O)(=O)c2ccccc21)NO` (racemic), for which the outcome (in test [1]; in the test on U-937 [2]; with HCT-116 [15]; in test [3]; in the test with HCT-116 [17]; in the test on U-937 [18]) was Active. For the same compound, the result (in [19]; in the test on U-937 [6]; in test [7]; in the test with U-937 [21]; in [23]; in the test on HCT-116 [8]) was Active. The outcome with HCT-116 [10] was Active. For the same compound, the inhibition in test [14] came to 99.3%; against Histone deacetylase 1 [22], 80.9%. In the test with U-937 [16], the Activity is approximately 6%. Moreover, the values for the 50% inhibitory concentration (IC50) against Histone deacetylase 1 [20] and on Histone deacetylase were 378 nM and 77.9 nM, respectively.

As to `O=C(CCCCCN1C(=O)CC(c2ccc(Cl)c(Cl)c2)Sc2ccccc21)NO` (racemic), the result (in test [1]; in the test with U-937 [2]; with HCT-116 [4]; in the test with U-937 [5]; with U-937 [6]; in [7]) was Active. The result (in test [23]; with HCT-116 [8]; in the test with U-937 [9]; in the test with HCT-116 [10]) was Active. Also, the Activity in the test on U-937 [11] was approximately 12%; in the test with HCT-116 [12], 22%. This compound also came in with a 50% inhibitory concentration (IC50) against Histone deacetylase of 229.2 nM.

`O=C(CCCCCN1C(=O)CC(c2cccc(Br)c2)Sc2ccccc21)NO` (racemic): the outcome (in [1]; in the test on U-937 [2]; with HCT-116 [4]; with U-937 [5]; in the test with U-937 [6]; in test [7]) was Active. Moreover, the result (in test [23]; in the test with HCT-116 [8]; with U-937 [9]; in the test with HCT-116 [10]) was Active. In addition, the Activity with U-937 [11] was approximately 12%; in the test with HCT-116 [12], 22%. The compound further registered an IC50 against Histone deacetylase of 293.3 nM.

Take `O=C(CCCCCCC(=O)Nc1ccccc1)NO` [VORINOSTAT]: the result in the test with U-937 [24], in the test on HCT-116 [25], in the test on U-937 [26] and in the test with U-937 [9] was Active. For the same compound, in the test on U-937 [11], the Activity was approximately 10%.

A word on the IC50: it is the point on the concentration scale where inhibition reaches its midpoint. Higher therefore signals weaker potency. The inhibition is the share of the control response that was lost under treatment. A high value points to a strong effect.
